Our source for the IC50 values is patent US10150764B2, “Substituted benzene compounds” (Epizyme, Inc., priority 2013, dated 2018).

SMILES strings stand for the structures.

For test [1], the system named is H3K27me3 in WSU-DLCL2 cells. The experiment in a line: WSU-DLCL2 methylation assay (H3K27me3 ELISA). The note with it: Homo sapiens, WSUDLCL2, 96 hours incubation, H3K27me3 normalised to total H3. Format: cell-based, human. (In general: An ELISA detects its analyte on a solid surface through an enzyme-linked reagent.)
Description: WSU-DLCL2 Methylation Assay
WSU-DLCL2 suspension cells were purchased from DSMZ (German Collection of Microorganisms and Cell Cultures, Braunschweig, Germany). RPMI/Glutamax Medium, Penicillin-Streptomycin, Heat Inactivated Fetal Bovine Serum, and D-PBS were purchased from Life Technologies, Grand Island, N.Y., USA. Extraction Buffer and Neutralization Buffer (5×) were purchased from Active Motif, Carlsbad, Calif., USA. Rabbit anti-Histone H3 antibody was purchased from Abcam, Cambridge, Mass., USA. Rabbit anti-H3K27me3 and HRP-conjugated anti-rabbit-IgG were purchased from Cell Signaling Technology, Danvers, Mass., USA. TMB “Super Sensitive” substrate was sourced from BioFX Laboratories, Owings Mills, Md., USA. IgG-free Bovine Serum Albumin was purchased from Jackson ImmunoResearch, West Grove, Pa., USA. PBS with Tween (10×PBST) was purchased from KPL, Gaithersburg, Md., USA. Sulfuric Acid was purchased from Ricca Chemical, Arlington, Tex., USA. Immulon ELISA plates were purchased from Thermo, Rochester, N.Y., USA. V-bottom cell culture plates were purchased from Corning Inc., Corning, N.Y., USA. V-bottom polypropylene plates were purchased from Greiner Bio-One, Monroe, N.C., USA.
WSU-DLCL2 suspension cells were maintained in growth medium (RPMI 1640 supplemented with 10% v/v heat inactivated fetal bovine serum and 100 units/mL penicillin-streptomycin) and cultured at 37° C. under 5% CO2. Under assay conditions, cells were incubated in Assay Medium (RPMI 1640 supplemented with 20% v/v heat inactivated fetal bovine serum and 100 units/mL penicillin-streptomycin) at 37° C. under 5% CO2 on a plate shaker.
WSU-DLCL2 cells were seeded in assay medium at a concentration of 50,000 cells per mL to a 96-well V-bottom cell culture plate with 200 μL per well. […] Plates were incubated on a titer-plate shaker at 37° C., 5% CO2 for 96 hours. After four days of incubation, plates were spun at 241×g for five minutes and medium was aspirated gently from each well of cell plate without disturbing cell pellet. Pellet was resuspended in: 200 μL DPBS and plates were spun again at 241×g for five minutes. The supernatant was aspirated and cold (4° C.) Extraction buffer (100 μL) was added per well. Plates were incubated at 4° C. on orbital shaker for two hours. Plates were spun at 3427×g×10 minutes. Supernatant (80 μL per well) was transferred to its respective well in 96 well V-bottom polypropylene plate. Neutralization Buffer 5× (20 μL per well) was added to V-bottom polypropylene plate containing supernatant. V-bottom polypropylene plates containing crude histone preparation (CHP) were incubated on orbital shaker×five minutes. Crude Histone Preparations were added (2 μL per well) to each respective well into duplicate 96 well ELISA plates containing 100 μL Coating Buffer (1×PBS+BSA 0.05% w/v). Plates were sealed and incubated overnight at 4° C. The following day, plates were washed three times with 300 μL per well 1×PBST. […] For H3K27me3 detection, 100 μL of HRP conjugated anti-rabbit IgG antibody diluted to 1:4000 in ELISA diluent was added per well. Plates were incubated at room temperature for 90 minutes. […] TMB substrate 100 μL was added per well. Histone H3 plates were incubated for five minutes at room temperature. H3K27me3 plates were incubated for 10 minutes at room temperature. The reaction was stopped with sulfuric acid 1N (100 μL per well). Absorbance for each plate was read at 450 nm.
Each plate included eight control wells DMSO only treatment (Minimum Inhibition) as well as eight control wells for maximum inhibition (Background wells).
The average of the ratio values for each control type was calculated and used to determine the percent inhibition for each test well in the plate. Test compound was serially diluted three-fold in DMSO for a total of ten test concentrations, beginning at 25 μM.
Test [2] deals with wild-type EZH2 (PRC2 enzyme) (Homo sapiens (Human), UniProt Q15910). The experiment in a line: PRC2 enzyme assay on peptide substrate, wild-type EZH2 (H3K27me0 peptide, 3H-SAM Flashplate). Type of test: biochemical. The following applies: wild-type PRC2 4 nM, read-out: WT EZH2 IC50.
Protocol: (§1) Human PRC2 enzymes were purified as 4-component enzyme complexes co-expressed in Spodoptera frugiperda (sf9) cells using a baculovirus expression system. […] The EED subunit contained an N-terminal FLAG tag that was used to purify the entire 4-component complex from sf9 cell lysates.
(§2) The assays were all performed in a buffer consisting of 20 mM bicine (pH=7.6), 0.5 mM DTT, 0.005% BSG and 0.002% Tween20, prepared on the day of use. […] DMSO (1 μL) was added to columns 11, 12, 23, 24, rows A-H for the maximum signal control, and SAH, a known product and inhibitor of PRC2 (1 μL) was added to columns 11, 12, 23, 24, rows I-P for the minimum signal control. A cocktail (40 μL) containing the wild-type PRC2 enzyme and H3K27me0 peptide or any of the Y641 mutant enzymes and H3K27me2 peptide was added by Multidrop Combi (Thermo). The compounds were allowed to incubate with PRC2 for 30 min at 25° C., then a cocktail (10 μL) containing a mixture of non-radioactive and ^3H-SAM was added to initiate the reaction (final volume=51 μL). […] The assays were stopped by the addition of non-radioactive SAM (10 μL) to a final concentration of 600 μM, which dilutes the ^3H-SAM to a level where its incorporation into the peptide substrate is no longer detectable. 50 of the reaction in the 384-well polypropylene plate was then transferred to a 384-well Flashplate and the biotinylated peptides were allowed to bind to the streptavidin surface for at least 1 h before being washed three times with 0.1% Tween20 in a Biotek ELx405 plate washer. The plates were then read in a PerkinElmer TopCount platereader to measure the quantity of ^3H-labeled peptide bound to the Flashplate surface, measured as disintegrations per minute (dpm) or alternatively, referred to as counts per minute (cpm).
Test [3] deals with EZH2 Y641F mutant (PRC2 enzyme) (Homo sapiens (Human), UniProt Q15910, Y641F). The experiment in a line: PRC2 enzyme assay on peptide substrate, EZH2 Y641F mutant (H3K27me2 peptide, 3H-SAM Flashplate). Type of test: biochemical. The following applies: Y641F mutant PRC2 4 nM.
Sequence of EZH2 Y641F mutant (PRC2 enzyme) (Q15910 whole entry Y641F): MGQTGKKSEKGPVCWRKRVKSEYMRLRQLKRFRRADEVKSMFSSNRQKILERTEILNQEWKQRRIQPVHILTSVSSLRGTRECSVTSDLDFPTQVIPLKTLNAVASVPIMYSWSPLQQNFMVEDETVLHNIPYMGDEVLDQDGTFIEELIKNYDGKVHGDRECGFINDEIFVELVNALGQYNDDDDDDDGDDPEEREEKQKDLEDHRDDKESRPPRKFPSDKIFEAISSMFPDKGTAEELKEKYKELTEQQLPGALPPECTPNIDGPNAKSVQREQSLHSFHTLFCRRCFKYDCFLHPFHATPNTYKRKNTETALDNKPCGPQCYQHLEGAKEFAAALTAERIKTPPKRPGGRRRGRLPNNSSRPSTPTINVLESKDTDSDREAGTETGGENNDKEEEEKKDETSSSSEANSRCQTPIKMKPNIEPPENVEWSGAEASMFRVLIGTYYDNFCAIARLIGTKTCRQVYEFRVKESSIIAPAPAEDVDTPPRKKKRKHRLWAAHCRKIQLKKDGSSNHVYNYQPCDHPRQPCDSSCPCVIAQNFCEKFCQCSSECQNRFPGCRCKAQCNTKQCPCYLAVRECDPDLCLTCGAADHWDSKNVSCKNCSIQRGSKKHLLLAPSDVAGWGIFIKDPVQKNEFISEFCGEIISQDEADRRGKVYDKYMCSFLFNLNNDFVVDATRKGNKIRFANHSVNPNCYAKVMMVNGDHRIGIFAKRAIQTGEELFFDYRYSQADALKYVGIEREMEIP
Sequence of EZH2 Y641F mutant (PRC2 enzyme) (O75530 whole entry partner): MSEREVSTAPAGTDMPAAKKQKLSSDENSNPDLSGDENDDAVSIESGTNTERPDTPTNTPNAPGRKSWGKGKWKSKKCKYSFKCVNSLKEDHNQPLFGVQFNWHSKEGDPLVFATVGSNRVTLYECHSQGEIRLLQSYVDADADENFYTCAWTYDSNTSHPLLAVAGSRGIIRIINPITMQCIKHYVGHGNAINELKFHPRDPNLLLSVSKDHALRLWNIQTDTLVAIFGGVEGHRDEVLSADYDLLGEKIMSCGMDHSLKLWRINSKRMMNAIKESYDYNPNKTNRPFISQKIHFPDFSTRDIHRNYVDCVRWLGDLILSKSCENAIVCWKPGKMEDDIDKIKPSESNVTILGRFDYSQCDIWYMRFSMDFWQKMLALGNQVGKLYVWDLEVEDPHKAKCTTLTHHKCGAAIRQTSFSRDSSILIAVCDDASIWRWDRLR
Sequence of EZH2 Y641F mutant (PRC2 enzyme) (Q15022 whole entry partner): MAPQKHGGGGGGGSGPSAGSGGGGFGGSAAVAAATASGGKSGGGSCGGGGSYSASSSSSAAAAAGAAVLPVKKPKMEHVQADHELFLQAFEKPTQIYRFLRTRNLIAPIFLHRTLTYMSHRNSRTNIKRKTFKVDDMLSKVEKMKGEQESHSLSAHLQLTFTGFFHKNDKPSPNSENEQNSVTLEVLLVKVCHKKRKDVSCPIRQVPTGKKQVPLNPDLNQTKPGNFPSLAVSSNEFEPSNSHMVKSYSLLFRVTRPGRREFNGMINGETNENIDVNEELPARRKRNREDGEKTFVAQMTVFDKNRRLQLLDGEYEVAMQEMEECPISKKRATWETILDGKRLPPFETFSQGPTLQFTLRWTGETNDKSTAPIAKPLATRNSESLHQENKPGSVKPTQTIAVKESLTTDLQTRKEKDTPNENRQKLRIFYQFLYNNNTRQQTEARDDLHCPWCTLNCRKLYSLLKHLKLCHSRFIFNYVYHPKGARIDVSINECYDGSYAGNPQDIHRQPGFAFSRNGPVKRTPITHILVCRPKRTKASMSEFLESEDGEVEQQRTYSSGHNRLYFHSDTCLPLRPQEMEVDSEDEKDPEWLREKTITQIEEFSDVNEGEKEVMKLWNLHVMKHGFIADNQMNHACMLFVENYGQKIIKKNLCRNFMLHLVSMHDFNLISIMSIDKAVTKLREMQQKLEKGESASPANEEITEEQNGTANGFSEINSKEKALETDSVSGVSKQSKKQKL
Sequence of EZH2 Y641F mutant (PRC2 enzyme) (Q09028 whole entry partner): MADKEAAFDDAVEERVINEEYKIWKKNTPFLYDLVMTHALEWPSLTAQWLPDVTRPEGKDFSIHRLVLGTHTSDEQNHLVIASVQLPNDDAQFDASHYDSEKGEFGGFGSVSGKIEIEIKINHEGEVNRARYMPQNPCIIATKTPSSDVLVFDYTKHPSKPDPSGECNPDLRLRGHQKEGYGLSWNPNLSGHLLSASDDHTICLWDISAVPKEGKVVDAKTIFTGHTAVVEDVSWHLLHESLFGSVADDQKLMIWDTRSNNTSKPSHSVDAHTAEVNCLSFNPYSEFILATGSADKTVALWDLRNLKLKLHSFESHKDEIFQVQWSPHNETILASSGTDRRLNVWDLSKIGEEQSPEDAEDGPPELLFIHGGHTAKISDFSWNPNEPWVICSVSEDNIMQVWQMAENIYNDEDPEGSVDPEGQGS
Protocol: as §1, §2

Sequence of wild-type EZH2 (PRC2 enzyme) (Q15910 whole entry): as the sequence (Q15910 whole entry Y641F) above, with F641Y counted along it
Sequence of wild-type EZH2 (PRC2 enzyme) (O75530 whole entry partner): as the sequence (O75530 whole entry partner) above
Sequence of wild-type EZH2 (PRC2 enzyme) (Q15022 whole entry partner): as the sequence (Q15022 whole entry partner) above
Sequence of wild-type EZH2 (PRC2 enzyme) (Q09028 whole entry partner): as the sequence (Q09028 whole entry partner) above

As a reminder, the IC50 is the concentration that inhibits the measured activity by half. `CCN(c1cc(-c2ccc(CN3CCOCC3)cc2)cc(C(=O)NCc2c(C)[nH]n(C)c2=O)c1C)C1CCOCC1` [Compound 46, N-((2,5-dimethyl-3-oxo-2,3-dihydro-1H-pyrazol-4-yl)methyl)-5-(ethyl(tetrahydro-2H-pyran-4-yl)amino)-4-methyl-4′-(morpholinomethyl)-[1,1′-biphenyl]-3-carboxamide] registered an IC50 in test [1] of more than 50 µM.

Turning to `CCN(c1cc(-c2ccc(N3CCNCC3)nc2)cc(C(=O)NCc2c(C)[nH]n(C)c2=O)c1C)C1CCOCC1` [Compound 47, N-((2,5-dimethyl-3-oxo-2,3-dihydro-1H-pyrazol-4-yl)methyl)-3-(ethyl(tetrahydro-2H-pyran-4-yl)amino)-2-methyl-5-(6-(piperazin-1-yl)pyridin-3-yl)benzamide], the IC50 in test [1] was more than 50 µM.

Take `CCN(c1cc(Cl)cc(C(=O)NCc2c(OC)nn(C)c2C)c1C)[C@H]1CC[C@H](N(C)Cc2cccnc2)CC1` [Compound 66, 5-chloro-3-(ethyl((trans)-4-(methyl(pyridin-3-ylmethyl)amino)cyclohexyl)amino)-N-((3-methoxy-1,5-dimethyl-1H-pyrazol-4-yl)methyl)-2-methylbenzamide]: the results for the half-inhibitory concentration (IC50) in test [2] and in test [3] were 10.2 µM and 2.34 µM, respectively.

For the compound `CCN(c1cc(Cl)cc(C(=O)NCc2c(C)n(C)[nH]c2=O)c1C)[C@H]1CC[C@H](N(C)Cc2cccnc2)CC1` [Compound 67, 5-chloro-N-((1,5-dimethyl-3-oxo-2,3-dihydro-1H-pyrazol-4-yl)methyl)-3-(ethyl((trans)-4-(methyl(pyridin-3-ylmethyl)amino)cyclohexyl)amino)-2-methylbenzamide], the half-maximal inhibitory concentration (IC50) amounted to 0.319 µM in test [2] and 0.06 µM in test [3].

On to `CCN(c1cc(Cl)cc(C(=O)NCc2c(C)n(C)[nH]c2=O)c1C)[C@H]1CC[C@H](N(C)Cc2cccc(OCCOC)c2)CC1` [Compound 69, 5-chloro-N-((1,5-dimethyl-3-oxo-2,3-dihydro-1H-pyrazol-4-yl)methyl)-3-(ethyl((trans)-4-((3-(2-methoxyethoxy)benzyl)(methyl)amino)cyclohexyl)amino)-2-methylbenzamide], for which the IC50 worked out at 0.136 µM in test [2] and 0.031 µM in test [3].

Turning to `CCn1[nH]c(=O)c(CNC(=O)c2cc(Cl)cc(N(CC)[C@H]3CC[C@H](N(C)Cc4ccc(OC)cc4)CC3)c2C)c1C` [Compound 71, 5-chloro-3-(ethyl((trans)-4-((4-methoxybenzyl)-(methyl)-amino)-cyclohexyl)-amino)-N-((1-ethyl-5-methyl-3-oxo-2,3-dihydro-1H-pyrazol-4-yl)methyl)-2-methylbenzamide], the concentration for half-maximal inhibition (IC50) in test [2] stood at 1.92 µM; in test [3], 0.504 µM.

Regarding `CCN(c1cc(Cl)cc(C(=O)NCc2c(OC)nn(C)c2C)c1C)[C@H]1CC[C@H](N(C)C(C)c2cccnc2)CC1` (stereo partly drawn) [Compound 72, 5-chloro-3-(ethyl((trans)-4-(methyl(1-(pyridin-3-yl)ethyl)amino)cyclohexyl)amino)-N-((3-methoxy-1,5-dimethyl-1H-pyrazol-4-yl)methyl)-2-methylbenzamide], the IC50 in test [2] was more than 50 µM; in test [3] it was 5.67 µM.

As to `CCN(c1cc(Cl)cc(C(=O)NCc2c(C)n(C)[nH]c2=O)c1C)[C@H]1CC[C@H](N(C)C(C)c2cccnc2)CC1` (stereo partly drawn) [Compound 73, 5-chloro-N-((1,5-dimethyl-3-oxo-2,3-dihydro-1H-pyrazol-4-yl)methyl)-3-(ethyl((trans)-4-(methyl(1-(pyridin-3-yl)ethyl)amino)cyclohexyl)amino)-2-methylbenzamide], the 50% inhibitory concentration (IC50) is 1.29 µM in test [2] and 0.149 µM in test [3].

`CCN(c1cc(Cl)cc(C(=O)NCc2c(OC)nn(CC)c2C)c1C)C1CCN(CCOC)CC1` [Compound 74]: the IC50 in test [2] worked out at 12.6 µM; in test [3] it was 7.25 µM.

Take `CCN(c1cc(Cl)cc(C(=O)NCc2c(OC)nn(C)c2C)c1C)C1CCN(CCOC)CC1` [Compound 76, 5-chloro-3-(ethyl(1-(2-methoxyethyl)piperidin-4-yl)amino)-N-((3-methoxy-1,5-dimethyl-1H-pyrazol-4-yl)methyl)-2-methylbenzamide]: the IC50 in test [2] and in test [3] was more than 50 µM each time.

As to `CCN(c1cc(Cl)cc(C(=O)NCc2c(C)n(C)[nH]c2=O)c1C)C1CCN(CCOC)CC1` [Compound 77, 5-chloro-N-((1,5-dimethyl-3-oxo-2,3-dihydro-1H-pyrazol-4-yl)methyl)-3-(ethyl(1-(2-methoxyethyl)piperidin-4-yl)amino)-2-methylbenzamide], the IC50 in test [2] was 12.6 µM; in test [3], 4.69 µM.

For the compound `CCN(c1cc(Cl)cc(C(=O)NCc2c(OC)nn(C)c2C)c1C)C1CCN(CCc2cccc(OC)c2)CC1` [Compound 78, 5-chloro-3-(ethyl(1-(3-methoxyphenethyl)piperidin-4-yl)amino)-N-((3-methoxy-1,5-dimethyl-1H-pyrazol-4-yl)methyl)-2-methylbenzamide], the half-inhibitory concentration (IC50) in test [2] stood at 17.6 µM; in test [3] it was 4.26 µM.

Turning to `CCN(c1cc(Cl)cc(C(=O)NCc2c(C)n(C)[nH]c2=O)c1C)C1CCN(CCc2cccc(OC)c2)CC1` [Compound 79, 5-chloro-N-((1,5-dimethyl-3-oxo-2,3-dihydro-1H-pyrazol-4-yl)methyl)-3-(ethyl(1-(3-methoxyphenethyl)piperidin-4-yl)amino)-2-methylbenzamide], the IC50 in test [2] was 0.485 µM; in test [3], 0.1 µM.

For the compound `CCN(c1cc(Cl)cc(C(=O)NCc2c(OC)nn(C)c2N2CCCC2)c1C)[C@H]1CC[C@H](N(C)C)CC1` [Compound 80, 5-chloro-3-(((trans)-4-(dimethylamino)cyclohexyl) (ethyl)amino)-N-((3-methoxy-1-methyl-5-(pyrrolidin-1-yl)-1H-pyrazol-4-yl)methyl)-2-methylbenzamide], the IC50 was more than 50 µM in test [2] and 49.4 µM in test [3].

`CCN(c1cc(Cl)cc(C(=O)NCc2c(OC)nn(C)c2N2CCOCC2)c1C)[C@H]1CC[C@H](N(C)C)CC1` [Compound 82, 5-chloro-3-(((trans)-4-(dimethylamino)cyclohexyl) (ethyl)amino)-N-((3-methoxy-1-methyl-5-morpholino-1H-pyrazol-4-yl)methyl)-2-methylbenzamide]: the half-maximal inhibitory concentration (IC50) in test [2] amounted to 22.9 µM; in test [3], 27 µM.

Turning to `CCN(c1cc(Cl)cc(C(=O)NCc2c(OC)nn(C)c2N2CCCCC2)c1C)[C@H]1CC[C@H](N(C)Cc2cccc(OC)c2)CC1` [Compound 83, 5-chloro-3-(ethyl((trans)-4-((3-methoxybenzyl)(methyl)amino)cyclohexyl)amino)-N-((3-methoxy-1-methyl-5-(piperidin-1-yl)-1H-pyrazol-4-yl)methyl)-2-methylbenzamide], the IC50 in test [2] amounted to 45.8 µM; in test [3], 18.3 µM.

`CCN(c1cc(Cl)cc(C(=O)NCc2c(C)n(C)n(C)c2=O)c1C)[C@H]1CC[C@H](N(C)C)CC1` [Compound 87, 5-chloro-3-(ethyl((trans)-4-(dimethylamino)cyclohexyl)amino)-2-methyl-N-((1,2,5-trimethyl-3-oxo-2,3-dihydro-1H-pyrazol-4-yl)methyl)benzamide]: the IC50 in test [2] amounted to 0.335 µM; in test [3], 0.253 µM.

`CCN(c1cc(Cl)cc(C(=O)NCc2c(C(F)(F)F)nn(C)c2OC)c1C)[C@H]1CC[C@H](N(C)C)CC1` [Compound 88, 5-chloro-3-(ethyl((trans)-4-(dimethylamino)cyclohexyl)amino)-N-((5-methoxy-1-methyl-3-(trifluoromethyl)-1H-pyrazol-4-yl)methyl)-2-methylbenzamide]: the figures for the IC50 in test [2] and in test [3] were more than 50 µM and 46.4 µM, respectively.

Regarding `CCN(c1cc(Cl)cc(C(=O)NCc2c(C(F)(F)F)[nH]n(C)c2=O)c1C)[C@H]1CC[C@H](N(C)C)CC1` [Compound 89, 5-chloro-3-(ethyl((trans)-4-(dimethylamino)cyclohexyl)amino)-2-methyl-N-((2-methyl-3-oxo-5-(trifluoromethyl)-2,3-dihydro-1H-pyrazol-4-yl)methyl)benzamide], the concentration for half-maximal inhibition (IC50) in test [2] and in test [3] was more than 50 µM in each case.

Consider `CCN(c1cc(Cl)cc(C(=O)NCc2c(C(F)(F)F)n(C)n(C)c2=O)c1C)[C@H]1CC[C@H](N(C)C)CC1` [Compound 90, 5-chloro-N-((1,2-dimethyl-3-oxo-5-(trifluoromethyl)-2,3-dihydro-1H-pyrazol-4-yl)methyl)-3-(ethyl((trans)-4-(dimethylamino)cyclohexyl)amino)-2-methylbenzamide], for which the IC50 is 1.91 µM in test [2] and 0.502 µM in test [3].

In the case of `CCN(c1cc(Cl)cc(C(=O)NCc2c(OC)nn(C)c2N2CCCCC2)c1C)[C@H]1CC[C@H](N(C)C)CC1` [Compound 92, 5-chloro-3-(ethyl[(trans)-4-(dimethylamino)cyclohexyl]amino)-N-([3-methoxy-1-methyl-5-(piperidin-1-yl)-1H-pyrazol-4-yl]methyl)-2-methylbenzamide], the IC50 in test [2] and in test [3] was more than 50 µM each time.

Turning to `CCN(c1cc(Cl)cc(C(=O)NCc2c(N3CCCCC3)nn(C)c2OC)c1C)[C@H]1CC[C@H](N(C)C)CC1` [Compound 94, 5-chloro-3-(((trans)-4-(dimethylamino)cyclohexyl)(ethyl)amino)-N-((5-methoxy-1-methyl-3-(piperidin-1-yl)-1H-pyrazol-4-yl)methyl)-2-methylbenzamide], the IC50 in test [2] and in test [3] was more than 50 µM throughout.

`CCN(c1cc(Cl)cc(C(=O)NCc2c(OC)nn(C)c2OC)c1C)[C@H]1CC[C@H](N(C)C)CC1` [Compound 95, 5-chloro-N-((3,5-dimethoxy-1-methyl-1H-pyrazol-4-yl)methyl)-3-(((trans)-4-(dimethylamino)cyclohexyl)(ethyl)amino)-2-methylbenzamide]: the IC50 in test [2] was more than 50 µM; in test [3] it was 17.7 µM.
